The source of these data is paper PMC7795171, “In Silico and In Vitro Analysis of Major Cannabis-Derived Compounds as Fatty Acid Amide Hydrolase Inhibitors” (Molecules, 2020).

Molecules are shown by their SMILES. Read-outs that look alike come from different tables or passages of the source.

One assay addresses T1, hFAAH (Homo sapiens, UniProt O00519).
T1 construct: purchased Cayman Chemical Company
T1 sequence (O00519 1-579): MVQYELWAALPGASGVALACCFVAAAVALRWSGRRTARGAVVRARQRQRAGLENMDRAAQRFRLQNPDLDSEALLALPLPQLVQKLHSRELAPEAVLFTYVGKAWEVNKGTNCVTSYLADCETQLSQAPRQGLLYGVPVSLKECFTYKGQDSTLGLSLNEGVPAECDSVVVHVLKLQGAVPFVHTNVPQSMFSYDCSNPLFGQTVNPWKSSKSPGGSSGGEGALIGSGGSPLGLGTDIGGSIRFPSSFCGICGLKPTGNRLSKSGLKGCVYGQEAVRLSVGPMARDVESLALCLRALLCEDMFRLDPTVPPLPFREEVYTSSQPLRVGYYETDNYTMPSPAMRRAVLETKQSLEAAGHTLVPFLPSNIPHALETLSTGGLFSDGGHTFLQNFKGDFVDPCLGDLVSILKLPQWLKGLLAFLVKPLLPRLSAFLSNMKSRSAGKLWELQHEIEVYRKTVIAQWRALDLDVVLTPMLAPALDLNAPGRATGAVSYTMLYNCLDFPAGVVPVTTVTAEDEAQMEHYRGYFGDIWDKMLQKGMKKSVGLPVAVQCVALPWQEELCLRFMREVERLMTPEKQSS
In words: FAAH activity assay, purified human FAAH, [14C]AEA hydrolysis. It is filed as biochemical. The procedure:
(§1) Rat brains were homogenized in 50 mM Tris-HCl (50 mM, pH 7.4), and were centrifuged sequentially at 800× g and 20,000× g; then, the supernatants were discharged, and rFAAH activity was tested in membrane preparations incubated with 10 µM [^14C]AEA at 37 °C for 15 min (pH = 9.0). The reaction was stopped with a 1:1 (v/v) mixture of chloroform/methanol and the release of [^14C]ethanolamine in the aqueous phase was measured as reported. Purified human FAAH was assayed in the same way as rFAAH.

The target in the next assay is T2, rFAAH (Rattus norvegicus, UniProt P97612).
T2 construct: from tissue; host or cells: rat brain membranes
T2 sequence (P97612 1-579): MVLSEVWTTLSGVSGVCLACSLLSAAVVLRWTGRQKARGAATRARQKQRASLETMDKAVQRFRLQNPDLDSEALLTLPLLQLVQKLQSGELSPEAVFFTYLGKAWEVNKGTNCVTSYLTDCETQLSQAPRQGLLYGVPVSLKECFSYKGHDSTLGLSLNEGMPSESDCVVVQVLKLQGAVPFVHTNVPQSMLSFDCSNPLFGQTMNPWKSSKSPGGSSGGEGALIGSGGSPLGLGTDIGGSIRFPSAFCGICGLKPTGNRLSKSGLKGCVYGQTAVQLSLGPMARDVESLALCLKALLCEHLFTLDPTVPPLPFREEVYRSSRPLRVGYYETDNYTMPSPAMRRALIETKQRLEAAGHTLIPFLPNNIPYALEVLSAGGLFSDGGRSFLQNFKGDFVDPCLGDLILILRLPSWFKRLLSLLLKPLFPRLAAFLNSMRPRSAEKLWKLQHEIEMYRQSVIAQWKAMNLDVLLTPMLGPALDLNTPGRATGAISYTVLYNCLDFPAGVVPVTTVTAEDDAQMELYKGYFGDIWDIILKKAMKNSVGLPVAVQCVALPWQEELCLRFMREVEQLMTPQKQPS
As to the kind of experiment: FAAH activity assay, rat brain membranes, [14C]AEA hydrolysis. The conditions noted are these: for % In Vitro Inhibition (At 100 µm): rFAAH, compound at 100 µm. Format: biochemical. The procedure:
as §1

In another assay the test system is TRPA1 channels. On the set-up: method as in PMID 21726418. The conditions noted are these: read-out: EC50, agonist of TRPA1 channels; cited from earlier work.
In a further assay the test system is FAAH. Details: method as in PMID 21392988. The conditions noted are these: non-covalent inhibitor co-crystallized in 3QK5; read-out: half-maximal inhibitory concentration (IC50); cited from earlier work.
[1] abbreviates: purified human FAAH, 10 µM [14C]AEA, 37 °C, 15 min, pH 9.0, dose-response 0–100 µM, read-out: IC50 Towards hFAAH.
Where [2] appears, read: rat brain membranes, 10 µM [14C]AEA, 37 °C, 15 min, pH 9.0, dose-response 0–100 µM, read-out: IC50 Towards rFAAH.

Take `C=C(C)[C@@H]1CCC(C)=C[C@H]1c1c(O)cc(CCCCC)cc1O` [CBD, cannabidiol, reference compound]: the IC50 at hFAAH (setting [1]) is greater than 100 µM.
Turning to `CCCCCc1cc(O)c(C/C=C(\C)CCC=C(C)C)c(O)c1` [CBG, cannabigerol], the IC50 on hFAAH (setting [1]) was greater than 100 µM; on rFAAH (setting [2]), roughly 100 µM. In addition, the “% In Vitro Inhibition (At 100 µm)” value at rFAAH is recorded as 53%.
Regarding `CCCc1cc(O)c2c(c1)OC(C)(C)[C@@H]1CCC(C)=C[C@@H]21` [THCV, Δ^9-tetrahydrocannabivarin], at hFAAH, the IC50 was greater than 100 µM. On rFAAH, the IC50 was greater than 100 µM and the “% In Vitro Inhibition (At 100 µm)” value was determined as 30%.
Turning to `CCCCCc1cc(O)c2c(c1)OC(C)(C)c1ccc(C)cc1-2` [CBN, cannabinol], the IC50 against hFAAH was roughly 100 µM. Further, at rFAAH, the IC50 turned out to be 60 ± 10 µM and the “% In Vitro Inhibition (At 100 µm)” value came to 65%.
Turning to `CCCCCc1cc(O)c2c(c1)OC(C)(CCC=C(C)C)C=C2` (stereo not shown) [CBC, cannabichromene], the IC50 at hFAAH (setting [1]) is greater than 100 µM; on rFAAH (setting [2]), roughly 100 µM. In addition, the “% In Vitro Inhibition (At 100 µm)” value at rFAAH stood at 51%. Besides, the EC50 (usually the concentration at which the effect is half-maximal) with TRPA1 channels was 90 nM.
For the molecule `Cc1c([C@H]2CCCN(c3nccc(-c4cc5ccccc5s4)n3)C2)c2cccnc2n1CC#N` [QK5], the IC50 with FAAH is 18 nM.
For the molecule `NC(=O)c1cccc(-c2cccc(OC(=O)NC3CCCCC3)c2)c1` [URB597, reference compound], the inhibition (commonly how much of the control response was suppressed) at 10 µM on hFAAH (read-out: Inhibition of hFAAH activity compared to controls) is greater than 99.5%.
For `C=C1CC/C=C(\C)CC[C@@H]2[C@@H]1CC2(C)C` [BCP, β-caryophyllene], the IC50 at hFAAH (setting [1]) and on rFAAH (setting [2]) was greater than 100 µM throughout. For the same molecule, the “% In Vitro Inhibition (At 100 µm)” value on rFAAH was found to be 18%.
